Test results reported in ChEMBL document CHEMBL2074406, “Single amino acid substitutions in the transmembrane domains of breast cancer resistance protein (BCRP) alter cross resistance patterns in transfectants” (Int J Cancer, 2003).

molecular target: T1, Broad substrate specificity ATP-binding cassette transporter ABCG2 (Homo sapiens, UniProt Q9UNQ0); assay: TP_TRANSPORTER: drug resistance in BCRP-expressing PA317 cells; type: functional, cell-based; conditions: mouse
T1 sequence (Q9UNQ0 whole entry): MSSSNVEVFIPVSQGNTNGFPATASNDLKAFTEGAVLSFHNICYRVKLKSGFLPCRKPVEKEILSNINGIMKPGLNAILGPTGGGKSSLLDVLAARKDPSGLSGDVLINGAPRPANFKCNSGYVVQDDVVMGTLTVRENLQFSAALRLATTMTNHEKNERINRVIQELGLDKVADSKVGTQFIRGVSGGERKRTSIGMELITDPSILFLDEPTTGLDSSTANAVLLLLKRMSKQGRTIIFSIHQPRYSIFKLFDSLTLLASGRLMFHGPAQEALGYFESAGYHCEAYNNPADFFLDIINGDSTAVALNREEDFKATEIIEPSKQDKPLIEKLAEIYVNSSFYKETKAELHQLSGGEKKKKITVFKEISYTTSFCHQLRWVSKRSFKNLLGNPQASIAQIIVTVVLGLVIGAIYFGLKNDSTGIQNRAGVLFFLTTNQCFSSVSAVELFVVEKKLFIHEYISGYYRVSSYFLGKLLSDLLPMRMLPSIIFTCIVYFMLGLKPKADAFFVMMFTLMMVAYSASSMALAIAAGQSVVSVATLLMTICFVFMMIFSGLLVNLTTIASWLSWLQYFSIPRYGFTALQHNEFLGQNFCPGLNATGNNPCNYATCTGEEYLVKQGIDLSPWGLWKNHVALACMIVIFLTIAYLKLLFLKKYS

| Compound | Activity |
| --- | --- |
| CCc1c2c(nc3ccc(O)cc13)-c1cc3c(c(=O)n1C2)COC(=O)[C@]3(O)CC [7-ETHYL-10-HYDROXYCAMPTOTHECIN] | substrate [] |
| C[C@]12CC[C@@H]3c4ccc(O)cc4CC[C@H]3[C@@H]1CCC2=O [ESTRONE] | inhibitor [] |
| COc1ccc2c3c([nH]c2c1)[C@H](C=C(C)C)N1C(=O)[C@@H]2CCCN2C(=O)[C@@H]1C3 [FUMITREMORGIN] | inhibitor [] |
| O=C1c2c(O)ccc(O)c2C(=O)c2c(NCCNCCO)ccc(NCCNCCO)c21 [MITOXANTRONE] | substrate [] |
